Data reported in patent publication US20210299039A1, “COMPOSITIONS AND METHODS FOR TREATING OCULAR DISEASE BY CONTACT LENS MEDIATED DRUG DELIVERY” (EyeGate Pharmaceuticals, Inc., priority 2020, published 2021).

What was measured:
[1] = Drug loading by soaking hydrogel discs in drug solution (weight gain); type: physicochemical; settings: 48-hour soak, HEMA-based discs with 15% MPMA vs without; FIG. 5
Experimental: The HEMA-based hydrogels of formulation 5 in Table 1, were made with and without 15% MPMA. Unreacted components were extracted by washing in DI water for at least 3 hours, followed by washing in a 50:50 mixture of reagent alcohol and DI water for at least 3 hours, then washing again in DI water for at least 3 hours. Discs 15 mm in diameter were punched out and dried in a vacuum dessicator for at least 72 hours. The dry discs were weighed to get an initial weight without drug. Discs were then placed in a drug solution for 48 hours on a shaker at 200 rpm. Drug solutions used in this study can be found in Table 2. After 48 hours, the discs were removed from the drug solution, patted with a Kimwipe to remove solution from the surface, and then dried in a vacuum dessicator for at least 48 hours. The dry drug-loaded discs were weighed, and the amount of drug loaded was determined as the drug-loaded disc weight minus the initial weight.

[2] = Drug release into PBS and extraction from HEMA-based hydrogel discs; type: physicochemical; settings: for effect of MPMA on total amount of drug released and extracted: HEMA-based discs with MPMA vs without, FIG. 7; for effect of MPMA on release over time: HEMA-based material with vs without MPMA, FIGS. 10 and 11
Experimental: At 0.5, 1, 2, 4, 6, and 8 hours the PBS was removed and fresh PBS was added.

[3] = rabbit, in vivo
Experimental: Following sterilization, lenses were handled aseptically. […] Control (drug-free) lenses were soaked and then stored (at 4° C.) in sterile isotonic saline until use. Controls were used only for retention and ocular health assessments.
A total of 11 New Zealand White rabbits were used in this study: 2 animals were in the control group and 9 animals in the treatment group. The nictitating membranes of the rabbits were removed and the rabbits allowed to recover for 2 weeks prior to study initiation. For the study, a contact lens was placed on each eye of an animal and a tarsorrhaphy performed by placing a single staple in the corner of the eyelids to aid in retention of the contact lenses. Cage side observations of the animals occurred every 2 hours to monitor lens retention and ocular health. At 2, 4, and 8 hours following lens placement, 3 animals in the treatment group were euthanized, the staple and contact lens from each eye were removed, and ocular health was noted. The following tissues were then isolated: aqueous humor (AH), vitreous humor (VH), retina, choroid, cornea, conjunctiva, and sclera. The aqueous humor was retrieved from each eye using a sterile 30-gauge needle on a 1 mL syringe while the eyes were still intact in the animal. Tissues were transferred to pre-weighed, pre-labeled tubes in a box of dry ice. […]

[4] = dexP release from silicone-based hydrogel discs into PBS; type: physicochemical
Description: Silicone-based hydrogels similar to formulation 2 in Table 1, but with only 1% EGDMA, were made with and without 15% MPMA. Unreacted components were extracted as described in Example 4.

[5] = In vitro drug release into and across sclera tissue (Franz cell); type: in vitro ADME, Porcine; settings: 4 minutes, 4 hours, 8 hours; HPLC-UV; FIG. 13
Description: An experimental setup (shown in FIG. 12) for determining drug release from a soft contact lens hydrogel disc into and across sclera tissue was created using a glass Franz cell. The Franz cell was filled with PBS. A cell strainer (BD Falcon, […] nylon, 23 mm ID) was fitted onto the Franz cell as a framework to hold the sclera and hydrogel disc together. Porcine sclera tissue (21 mm diameter, 1 mm thick) was placed in the cell strainer, the drug-loaded hydrogel disc was placed onto the sclera tissue, and a glass bottle was placed on top of the disc to firmly hold the assembly together in the cell strainer. At 4 minutes, 4 hours, or 8 hours, the sclera tissue was removed and a sample of the PBS from the Franz cell was taken. The sclera tissue was digested using collagenase, and the amount of dexP in the digested sclera tissue and PBS was determined using HPLC-UV.

[6] = Loss of crosslinked-in dexP during extraction washes (HPLC-UV); type: physicochemical; settings: formulation 4 hydrogels with MPMA compared to without MPMA; FIG. 4
Experimental: Hydrogels were placed in deionized (DI) water for 35 minutes at 37° C./200 rpm, followed by 3 times in isopropyl alcohol for 25 minutes each at 37° C./200 rpm, then 2 additional times in DI water for 25 minutes each.

[7] = Formulation 3
Experimental: HEMA-based hydrogels were prepared as described in Example 4 using Formulation 3.

effect of MPMA on release over time [2]	SMILES	effect of MPMA on amount of drug loaded [1]	effect of MPMA on total amount of drug released and extracted [2]	further results
very little effect	Cc1ncc([N+](=O)[O-])n1CCO [Metronidazole]	did not affect loading	did not affect the amount released and extracted	total amount of drug released and extracted compared between drugs ([2]; 10 mg/ml soaking solution for metronidazole vs 40 mg/ml for the other drugs): lower than for dexP and predP
significantly reduced	NC[C@H]1O[C@H](O[C@H]2[C@H](O)[C@@H](O[C@H]3O[C@H](CO)[C@@H](O)[C@H](N)[C@H]3O)[C@H](N)C[C@@H]2N)[C@H](N)C[C@@H]1O [Tobramycin]	did not affect loading	significantly decreased the amount of drug released and extracted	–

Second part, the compound before the results:

SMILES	effect of MPMA on release over time [2]	effect of MPMA on amount of drug loaded [1]	effect of MPMA on total amount of drug released and extracted [2]	further results
C[C@@H]1C[C@H]2[C@@H]3CCC4=CC(=O)C=C[C@]4(C)[C@@]3(F)[C@@H](O)C[C@]2(C)[C@@]1(O)C(=O)COP(=O)(O)O [dexP, dexamethasone phosphate]	–	significantly increased the amount of drug loaded	significantly greater	detection in ocular tissues [3]: detected in the tissues of treated animals at each timepoint; drug reaching the back of the eye [3]: drug concentrations observed in the VH, retina, and choroid; total amount of dexP released ([4]; silicone-based discs with 15% MPMA vs without, initial soak, release in PBS, FIG. 6A): significantly greater; amount of dexP released after re-loading ([4]; silicone-based discs with MPMA vs without, re-soaked overnight, FIG. 6B): greater amount of dexP release; amount of dexP in sclera tissue and PBS reservoir [5]: increasing amount of dexP in the sclera tissue and PBS over time; amount of incorporated dexP removed during water and alcohol washes [6]: very little of the incorporated dexP was removed
C[C@@H]1C[C@H]2[C@@H]3CCC4=CC(=O)C=C[C@]4(C)[C@@]3(F)[C@@H](O)C[C@]2(C)[C@@]1(O)C(=O)COP(=O)([O-])[O-].[Na+].[Na+] [disodium dexP]	–	–	–	loading of dexP, disodium form compared to free acid form ([7]; 7 days soak in 40 mg/ml solution, FIG. 16): decreased loading and release; release of dexP, disodium form compared to free acid form ([7]; PBS up to 8 hours, FIG. 17): decreased loading and release
C[C@]12C=CC(=O)C=C1CC[C@@H]1[C@@H]2[C@@H](O)C[C@@]2(C)[C@H]1CC[C@]2(O)C(=O)COP(=O)(O)O [predP, Prednisolone phosphate]	–	significantly increased the amount of drug loaded	significantly greater	–
